Results as given in patent publication US9328083B2, “2-aminated methylene or 2-esterified methylene tanshinone derivatives, and preparation method and application thereof” (HANGZHOU BENSHENG PHARMACEUTICAL CO., LTD., priority 2011, dated 2016).
In brackets after ≈: the same amount, converted by molar mass.

Experiments:
[1] = system: H9 (acute lymphoblastic leukemia, ALL); test: MTT growth inhibition of leukemia cells, 72 h; assay type: cell-based, human; settings: Homo sapiens, H9, 72 h
Description: (§1) Leukemia cell lines: leukemia cell lines: K562/adr (drug-resistant, chronic myeloid leukemia, CML), NB4 (acute promyelocytic leukemia, AML), Kasumi-1 (acute myeloid leukemia M2 type, AML-M2), and Jurkat (acute lymphoblastic leukemia, ALL), all of which are donated by Cancer Research Institute of Zhejiang University, China; and H9 (acute lymphoblastic leukemia, ALL), which is purchased from China Center for Type Culture Collection (CCTCC).
(§2) The standard sample of tanshinone I (TA) and the 2-aminated methylene or 2-esterified methylene tanshinone I derivatives of the present invention are sufficiently dissolved with dimethylsulfoxide to produce a stock solution of 10 mg/mL, which is refrigerated at 4° C. and stored in dark, and is diluted with a cell culture medium to the desired concentration prior to experimentation.
(§3) Obtaining 6000 well-growing leukemia cells and inoculating them into wells of a 96-well cell culture plate. The culture medium is the RPMI-1640 cell culture medium containing 10% fetal bovine serum. After adding on the second day the 2-aminated methylene or 2-esterified methylene tanshinone I derivatives of different concentrations and mixing uniformly, placing the plate in a carbon dioxide cell incubator (5% CO2) at 37° C. and incubated for 72 hours. Then the viable cell concentration is determined by MTT method.

[2] = system: Jurkat (acute lymphoblastic leukemia, ALL); test: MTT growth inhibition of leukemia cells, 72 h; assay type: cell-based, human; settings: Homo sapiens, 72 h
Description: as §1, §2, §3

[3] = system: K562/adr (drug-resistant, chronic myeloid leukemia, CML); test: MTT growth inhibition of leukemia cells, 72 h; assay type: cell-based, human; settings: Homo sapiens, K562/Adr
Description: as §1, §2, §3

[4] = system: Kasumi-1 (acute myeloid leukemia M2 type, AML-M2); test: MTT growth inhibition of leukemia cells, 72 h; assay type: cell-based, human; settings: Homo sapiens, Kasumi-1, 72 h
Description: as §1, §2, §3

[5] = system: NB4 (acute promyelocytic leukemia, AML); test: MTT growth inhibition of leukemia cells, 72 h; assay type: cell-based, human; settings: Homo sapiens, NB4, 72 h
Description: as §1, §2, §3

[6] = system: RPMI8226 (multiple myeloma); test: MTT growth inhibition of multiple myeloma cells, 72 h; assay type: cell-based, human; settings: Homo sapiens, RPMI 8226, 72 h
Description: Myeloma cell lines: RPMI8226 (multiple myeloma), purchased from Fuxiang Bio-tech Co. Ltd., Shanghai, China.
as §2
Obtaining 6000 well-growing myeloma cells as above and inoculating them into wells of a 96-well cell culture plate. The culture medium is the 1640 cell culture medium containing 10% fetal bovine serum. After adding the 2-aminated methylene or 2-esterified methylene tanshinone I derivatives of different concentrations and mixing uniformly, placing the plate in a carbon dioxide cell incubator (5% CO2) at 37° C. and incubated for 72 hours. Then the viable cell concentration is determined by MTT method.

[7] = system: A549 (human lung cancer); test: MTT growth inhibition of human solid tumor cells, 72 h; assay type: cell-based; settings: Homo sapiens, A549, 72 h
Description: (§4) Hep-2 (laryngeal carcinoma), A549 (human lung cancer), CaES-17 (esophageal cancer cell), PC-3 (prostate cancer), CNE (nasopharyngeal carcinoma cell), and SK-OV-3 (ovarian cancer cell), all of which are purchased from China Center For Type Culture Collection; RKO (human colon adenocarcinoma cell), MGC 803 (human gastric cancer cell), MG63 (osteosarcoma) and U87 MG (malignant glioma cell), all of which are purchased from Fuxiang Bio-tech Co. Ltd., Shanghai, China; PANC-1 (pancreatic cancer), Hep G2 (human liver cancer cell), Becap37 (human breast cancer cell) and Hela (human cervical cancer cell), all of which are donated by Cancer Research Institute of Zhejiang University, China.
as §2
(§5) Obtaining 4000 well-growing human solid tumor cells and inoculating them into wells of a 96-well cell culture plate. The culture medium is DMEM High Glucose cell culture medium containing 10% fetal bovine serum. The plate is placed in a carbon dioxide cell incubator (5% CO2) at 37° C. and incubated for 24 hours. After adding the 2-aminated methylene or 2-esterified methylene tanshinone I derivatives of different concentrations and mixing uniformly, the plate is placed in a carbon dioxide cell incubator (5% CO2) at 37° C. and incubated for 72 hours. Then the viable cell concentration is determined by the MTT method.

[8] = system: Becap37 (human breast cancer cell); test: as above; assay type: cell-based; settings: Homo sapiens, Becap-37, 72 h
Description: as §4, §2, §5

[9] = system: CNE (nasopharyngeal carcinoma cell); test: as above; assay type: cell-based; settings: Homo sapiens
Description: as §4, §2, §5

[10] = system: CaES-17 (esophageal cancer cell); test: as above; assay type: cell-based; settings: Homo sapiens, CaEs17, CaEs-17, 72 h
Description: as §4, §2, §5

[11] = system: Hela (human cervical cancer cell); test: as above; assay type: cell-based; settings: Homo sapiens, HeLa, 72 h
Description: as §4, §2, §5

[12] = system: Hep G2 (human liver cancer cell); test: as above; assay type: cell-based; settings: Homo sapiens, HepG2, Hep G2, 72 h
Description: as §4, §2, §5

[13] = system: Hep-2 (laryngeal carcinoma); test: as above; assay type: cell-based; settings: Homo sapiens, HEp-2, 72 h
Description: as §4, §2, §5

[14] = system: MG63 (osteosarcoma); test: as above; assay type: cell-based; settings: Homo sapiens, MG-63, 72 h
Description: as §4, §2, §5

[15] = system: MGC 803 (human gastric cancer cell); test: as above; assay type: cell-based; settings: Homo sapiens, MGC-803, 72 h
Description: as §4, §2, §5

[16] = system: PANC-1 (pancreatic cancer); test: as above; assay type: cell-based; settings: Homo sapiens, PANC-1, 72 h
Description: as §4, §2, §5

[17] = system: PC-3 (prostate cancer); test: as above; assay type: cell-based; settings: Homo sapiens, PC-3, 72 h
Description: as §4, §2, §5

[18] = system: RKO (human colon adenocarcinoma cell); test: as above; assay type: cell-based; settings: Homo sapiens
Description: as §4, §2, §5

[19] = system: SK-OV-3 (ovarian cancer cell); test: as above; assay type: cell-based; settings: Homo sapiens, SK-OV-3, 72 h
Description: as §4, §2, §5

[20] = system: U87 MG (malignant glioma cell); test: as above; assay type: cell-based; settings: Homo sapiens, U-87 MG, U87-MG, 72 h
Description: as §4, §2, §5

Cc1c(CNCC2CCCCC2)oc2c1C(=O)C(=O)c1c-2ccc2c(C)cccc12 [BS-TA-B06] showed an IC50 ([1]; read-out: IC50) of 3.2 µg/mL (≈ 7.97 µM), an IC90 ([1]; read-out: IC90) of 14.1 µg/mL (≈ 35.1 µM) and an IC50 ([2]; read-out: IC50) of 5.25 µg/mL (≈ 13.1 µM). It also gave an IC90 ([2]; read-out: IC90) of 16 µg/mL (≈ 39.8 µM), an IC50 ([3]; read-out: IC50) of 0.81 µg/mL (≈ 2.02 µM) and an IC90 ([3]; read-out: IC90) of 1.8 µg/mL (≈ 4.48 µM). The IC50 ([4]; read-out: IC50) was 0.57 µg/mL (≈ 1.42 µM), the IC90 ([4]; read-out: IC90) was 1.73 µg/mL (≈ 4.31 µM) and the IC50 ([5]; read-out: IC50) was 2.13 µg/mL (≈ 5.31 µM). For the same compound, the IC90 ([5]; read-out: IC90) was 7.29 µg/mL (≈ 18.2 µM), the IC50 ([6]; read-out: IC50) was 6.16 µg/mL (≈ 15.3 µM) and the IC90 ([6]; read-out: IC90) was 16 µg/mL (≈ 39.8 µM). For the same compound, the IC50 ([7]; read-out: IC50) was 1.59 µg/mL (≈ 3.96 µM), the IC90 ([7]; read-out: IC90) was 10 µg/mL (≈ 24.9 µM) and the IC50 ([8]; read-out: IC50) was 5.9 µg/mL (≈ 14.7 µM). For the same compound, the IC90 ([8]; read-out: IC90) was over 16 µg/mL, the IC50 ([9]; read-out: IC50) was 11.8 µg/mL (≈ 29.4 µM) and the IC90 ([9]; read-out: IC90) was over 16 µg/mL. For the same compound, the IC50 ([10]; read-out: IC50) was at least 19.3 µg/mL, the IC90 ([10]; read-out: IC90) was over 16 µg/mL and the IC50 ([11]; read-out: IC50) was 7.49 µg/mL (≈ 18.7 µM). The IC90 ([11]; read-out: IC90) was over 16 µg/mL, the IC50 ([12]; read-out: IC50) was 13.5 µg/mL (≈ 33.6 µM) and the IC90 ([12]; read-out: IC90) was over 16 µg/mL. The IC50 ([13]; read-out: IC50) was 9.23 µg/mL (≈ 23 µM), the IC90 ([13]; read-out: IC90) was over 16 µg/mL and the IC50 ([14]; read-out: IC50) was 4.76 µg/mL (≈ 11.9 µM). The IC90 ([14]; read-out: IC90) was over 16 µg/mL, the IC50 ([15]; read-out: IC50) was 7.82 µg/mL (≈ 19.5 µM) and the IC90 ([15]; read-out: IC90) was over 16 µg/mL. For the same compound, the IC50 ([16]; read-out: IC50) was 1.57 µg/mL (≈ 3.91 µM), the IC90 ([16]; read-out: IC90) was 16.7 µg/mL (≈ 41.6 µM) and the IC50 ([17]; read-out: IC50) was 10.3 µg/mL (≈ 25.8 µM). It also gave an IC90 ([17]; read-out: IC90) of 24.5 µg/mL (≈ 60.9 µM), an IC50 ([18]; read-out: IC50) of 3.42 µg/mL (≈ 8.52 µM) and an IC90 ([18]; read-out: IC90) of over 16 µg/mL. It also gave an IC50 ([19]; read-out: IC50) of over 16 µg/mL, an IC90 ([19]; read-out: IC90) of over 16 µg/mL and an IC50 ([20]; read-out: IC50) of 6.5 µg/mL (≈ 16.2 µM). For the same compound, the IC90 ([20]; read-out: IC90) was over 16 µg/mL.
